Earlier results as cited in patent publication US20110104282A1, “New Therapy of Treatment of the Irritable Bowel Syndrome” (Karolinska Institutet Innovations AB, priority 2008, published 2011).

Settings: on occasion

In the case of `N[C@@H](Cc1c[nH]c2ccccc12)C(=O)O` [tryptophan], the “adverse side effects of high doses” value is listed as “intestinal discomfort and nausea”.
